Laboratory results as given in US20080227797A1, “Pyridopyrimidine Derivatives as Pde4 Inhibitors for the Treatment of Inflammatory and Immune Diseases” (ASTRAZENECA AB, priority 2005, published 2008).
pIC50: −log10 of the molar value.

Biological target: recombinant Human Phosphodiesterase B2 (PDE4B2) (Homo sapiens, UniProt Q07343)
Experiment: Human Phosphodiesterase B2 Alpha Screen Assay
Assay type: biochemical
Conditions: cAMP substrate, Alpha Screen cAMP kit, 60 minutes at room temperature
Method: Human Phosphodiesterase B2 Alpha Screen Assay
The assay uses recombinant Human Phosphodiesterase B2 (PDE4B2) produced in house (PrAZL0133), stored at −20° C. The substrate uses cAMP, part of the Alpha Screen cAMP kit (Perkin Elmer, Cat# 6760625M), stored at 4° C. The Alpha Screen kit also includes biotinylated cAMP, acceptor and donor beads.
The assay additions were as follows: Test compounds and controls were added to white 384-well flat-bottom plates (Greiner, Cat# 781075), 0.2 μl in 100% DMSO, followed by 10 μl PDE4B2 in reaction buffer. The reaction buffer constitution was: 50 mM Tris (pH 7.5), 8.3 mM MgCl2, 1.7 mM EGTA and 0.01% (w/v) Brij®35. The enzyme and the compounds were incubated at room temperature for 15 minutes. Then 10 μl cAMP in reaction buffer was added. The assay was stopped after 60 minutes incubation at room temperature by adding 10 μl acceptor beads in detection buffer with 40 mM EDTA. The detection buffer constitution was: 5 mM Tris (pH 7.5), 0.1% (w/v) BSA and 0.1% (v/v) Tween 20. This addition followed by an addition of 10 μl donor beads in detection buffer, with biotinylated cAMP. The plates were then incubated, dark at room temperature, for 5 hours followed by measurement on a Fusion™-α analyser. IC50 values (presented in Table 1) were determined using Xlfit curve fitting using model 205.

recombinant Human Phosphodiesterase B2 (PDE4B2), sequence (Q07343 1-564 isoform Q07343-2): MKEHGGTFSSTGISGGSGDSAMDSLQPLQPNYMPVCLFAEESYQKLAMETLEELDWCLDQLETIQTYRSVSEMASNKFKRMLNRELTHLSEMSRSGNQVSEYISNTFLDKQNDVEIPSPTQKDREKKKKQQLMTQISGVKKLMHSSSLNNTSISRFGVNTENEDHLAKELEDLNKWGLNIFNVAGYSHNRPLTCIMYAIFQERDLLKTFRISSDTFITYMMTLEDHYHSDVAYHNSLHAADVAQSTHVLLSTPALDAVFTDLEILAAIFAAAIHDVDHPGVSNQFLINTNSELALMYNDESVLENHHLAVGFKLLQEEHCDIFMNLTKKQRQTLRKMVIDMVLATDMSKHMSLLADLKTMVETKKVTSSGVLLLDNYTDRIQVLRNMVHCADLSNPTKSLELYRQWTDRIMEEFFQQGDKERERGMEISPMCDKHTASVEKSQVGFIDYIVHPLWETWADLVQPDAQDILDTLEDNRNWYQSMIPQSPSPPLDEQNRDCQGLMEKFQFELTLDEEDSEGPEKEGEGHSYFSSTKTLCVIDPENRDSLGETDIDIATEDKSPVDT

Row | SMILES | pIC50
1 | O=C(N[C@H]1CC[C@@H](n2c(=O)c3cc(F)cnc3n(-c3ccc(F)c(F)c3)c2=O)CC1)c1cc(Cl)ccc1O [Example 4, 5-chloro-N-{cis-4-[1-(3,4-difluorophenyl)-6-fluoro-2,4-dioxo-1,4-dihydropyrido[2,3-d]pyrimidin-3(2H)-yl]cyclohexyl}-2-hydroxybenzamide] | 8.30
2 | O=C(N[C@H]1CC[C@@H](n2c(=O)c3cc(F)cnc3n(-c3ccc(F)c(F)c3)c2=O)CC1)c1cccc([N+](=O)[O-])c1 [Example 86, N-{cis-4-[1-(3,4-difluorophenyl)-6-fluoro-2,4-dioxo-1,4-dihydropyrido[2,3-d]pyrimidin-3(2H)-yl]cyclohexyl}-3-nitrobenzamide] | 8.38
3 | N#Cc1ccc(C(=O)N[C@H]2CC[C@@H](n3c(=O)c4cc(F)cnc4n(-c4ccc(F)c(F)c4)c3=O)CC2)cc1 [Example 89, 4-cyano-N-{cis-4-[1-(3,4-difluorophenyl)-6-fluoro-2,4-dioxo-1,4-dihydropyrido[2,3-d]pyrimidin-3(2H)-yl]cyclohexyl}benzamide] | 7.97
4 | O=C([C@H](O)c1ccccc1)N1CCC(n2c(=O)c3cc(F)cnc3n(-c3ccc(F)c(F)c3)c2=O)CC1 [Example 77, 1-(3,4-difluorophenyl)-6-fluoro-3-{1-[(2R)-2-hydroxy-2-phenylacetyl]piperidin-4-yl}pyrido[2,3-d]pyrimidine-2,4(1H,3H)-dione] | 6.83
5 | C=Cc1ccc(C(=O)N[C@H]2CC[C@@H](n3c(=O)c4cc(F)cnc4n(-c4ccc(F)c(F)c4)c3=O)CC2)cc1 [Example 101, N-{cis-4-[1-(3,4-difluorophenyl)-6-fluoro-2,4-dioxo-1,4-dihydropyrido[2,3-d]pyrimidin-3(2H)-yl]cyclohexyl}-4-vinylbenzamide] | 8.69
6 | CS(=O)(=O)c1cccc(-n2c(=O)n([C@H]3CC[C@@H](NC(=O)[C@@H](O)c4ccccc4)CC3)c(=O)c3cc(F)cnc32)c1 [Example 43, (2S)-N-{cis-4-[6-fluoro-1-[3-(methylsulfonyl)phenyl]-2,4-dioxo-1,4-dihydropyrido[2,3-d]pyrimidin-3(2H)-yl]cyclohexyl}-2-hydroxy-2-phenylacetamide] | 7.44
7 | COC(=O)CCC(=O)N[C@H]1CC[C@@H](n2c(=O)c3cc(F)cnc3n(-c3ccc(F)c(F)c3)c2=O)CC1 [Example 23, methyl 4-({cis-4-[1-(3,4-difluorophenyl)-6-fluoro-2,4-dioxo-1,4-dihydropyrido[2,3-d]pyrimidin-3(2H)-yl]cyclohexyl}amino)-4-oxobutanoate] | 8.42
8 | COC(=O)c1cccc(-n2c(=O)n([C@H]3CC[C@@H](NC(=O)C(C)C)CC3)c(=O)c3cc(F)cnc32)c1 [Example 62, methyl 3-[6-fluoro-3-[cis-4-(isobutyrylamino)cyclohexyl]-2,4-dioxo-3,4-dihydropyrido[2,3-d]pyrimidin-1(2H)-yl]benzoate] | 8.20
9 | O=C(N[C@H]1CC[C@@H](n2c(=O)c3cc(F)cnc3n(-c3ccc(F)c(F)c3)c2=O)CC1)c1ccc2[nH]nnc2c1 [Example 90, N-{cis-4-[1-(3,4-difluorophenyl)-6-fluoro-2,4-dioxo-1,4-dihydropyrido[2,3-d]pyrimidin-3(2H)-yl]cyclohexyl}-1H-1,2,3-benzotriazole-5-carboxamide] | 8.21
10 | CS(=O)(=O)c1cccc(-n2c(=O)n([C@H]3CC[C@@H](NC(=O)C4CC4)CC3)c(=O)c3cc(F)cnc32)c1 [Example 71, N-{cis-4-[6-fluoro-1-[3-(methylsulfonyl)phenyl]-2,4-dioxo-1,4-dihydropyrido[2,3-d]pyrimidin-3(2H)-yl]cyclohexyl}cyclopropanecarboxamide] | 7.39
11 | Cn1cnc(C(=O)N[C@H]2CC[C@@H](n3c(=O)c4cc(F)cnc4n(-c4ccc(F)c(F)c4)c3=O)CC2)c1 [Example 97, N-{cis-4-[1-(3,4-difluorophenyl)-6-fluoro-2,4-dioxo-1,4-dihydropyrido[2,3-d]pyrimidin-3(2H)-yl]cyclohexyl}-1-methyl-1H-imidazole-4-carboxamide] | 8.66
